Data as given in patent US20060104969A1, “Compositions and methods for enhancing structural and functional nervous system reorganization and recovery” (Massachusetts Institute of Technology, priority 2004, published 2006).

B1: plasmin (protein, UniProt P00747 20-580; P00747 581-810, looked up)
Plasmin heavy chain A: EPLDDYVNTQGASLFSVTKKQLGAGSIEECAAKCEEDEEFTCRAFQYHSKEQQCVIMAENRKSSIIIRMRDVVLFEKKVYLSECKTGNGKNYRGTMSKTKNGITCQKWSSTSPHRPRFSPATHPSEGLEENYCRNPDNDPQGPWCYTTDPEKRYDYCDILECEEECMHCSGENYDGKISKTMSGLECQAWDSQSPHAHGYIPSKFPNKNLKKNYCRNPDRELRPWCFTTDPNKRWELCDIPRCTTPPPSSGPTYQCLKGTGENYRGNVAVTVSGHTCQHWSAQTPHTHNRTPENFPCKNLDENYCRNPDGKRAPWCHTTNSQVRWEYCKIPSCDSSPVSTEQLAPTAPPELTPVVQDCYHGDGQSYRGTSSTTTTGKKCQSWSSMTPHRHQKTPENYPNAGLTMNYCRNPDADKGPWCFTTDPSVRWEYCNLKKCSGTEASVVAPPPVVLLPDVETPSEEDCMFGNGKGYRGKRATTVTGTPCQDWAAQEPHRHSIFTPETNPRAGLEKNYCRNPDGDVGGPWCYTTNPRKLYDYCDVPQCAAPSFDCGKPQVEPKKCPGR
Plasmin light chain B: VVGGCVAHPHSWPWQVSLRTRFGMHFCGGTLISPEWVLTAAHCLEKSPRPSSYKVILGAHQEVNLEPHVQEIEVSRLFLEPTRKDIALLKLSSPAVITDKVIPACLPSPNYVVADRTECFITGWGETQGTFGAGLLKEAQLPVIENKVCNRYEFLNGRVQSTELCAGHLAGGTDSCQGDSGGPLVCFEKDKYILQGVTSWGLGCARPNKPGVYVRVSRFVTWIEGVMRNN
modifications: Plasmin
notes: serine protease whose major substrate is fibrin (Sigma)

Assays:
axon growth = conditions: cited from earlier work
[1] = test system: dendritic spines of layer V pyramidal neurons in visual cortex slices; assay: Spine motility in acute visual cortex slices before and after enzyme application (two-photon imaging); format: cell-based, mice; conditions: p28 non-deprived slices; 45 minute enzyme application; tPA 0.5 μg/mL without exogenous plasminogen, plasmin 0.2 U/mL; p<0.0001
Protocol: Two photon imaging. Mice were prepared for in vivo imaging and imaged as described previously (Majewska and Sur, 2003). Briefly, primary visual cortex was identified using stereotaxic coordinates and either a small craniotomy was drilled in this area, or the skull was thinned without making a craniotomy. Imaging was performed with a custo m-made two-photon microscope consisting of a Ti:S laser (Tsunami, Spectra-physics, Menlo Park, Calif.) pumped by a 10W solid state source (Millennia, Spectra-physics) coupled to a modified Fluoview confocal scanhead (Olympus, Melville, N.Y.). Superficial dendrites were initially identified with wide-field epi-fluorescence illumination, and were subsequently imaged using a 60×, 0.9 N.A. lens with digital zoom (5-10×). Volumetric z-stacks were typically collected with a 800×600 acquisition window with 0.5-1 μm z-steps every five minutes over two hours. […]
Z-stack images were exported to MATLAB (Mathworks, Natick, Mass.) and processed using custom algorithms. Spine motility was analyzed on two-dimensional projections in ImageJ (NIH, Bethesda, Md.), where motility was defined as the average change in spine length per unit time (Lendvai et al., 2000; Majewska and Sur, 2003). […]

[2] = test system: rats with spinal cord injury (SCI); assay: Recovery of locomotor function (BBB scale) after T10 contusive spinal cord injury; format: in vivo, Sprague-Dawley rats
Text: FIGS. 8A and 8B show the effect of tPA on recovery of locomotor function graded on the BBB scale (y-axis; Basso et al., 1995 J. Neurotrauma) that ranges from 21 in normal rats to 0 in rats with complete hind limb paralysis. FIG. 8A presents a time course in which data points represent the group average±SEM (n=3/group) scored at different time points post T10 contusive injury. […] The dip of the curves starting at week 7 in both of the experimental groups was caused by the intra-cerebral cortex injections of axonal tract tracer BDA which was done at week 6 after injury. FIG. 8B presents a bar graph showing results of a second experiment in which data points represent the group average±SEM (n=7/group).
In a first set of experiments, 6 female Sprague-Dawley rats were anesthetized and spinal cord injury (SCI) was induced at TIO by using the New York University impactor with a 10 gm weight and a 12.5 mm weight drop. Behavioral tests were conducted on the first post-operative day and then weekly. The BBB (Basso, Beattie, Bresnahan) behavioral test was used to examine hind limb reflexes as well as coordinated use of the hind limbs (Basso et al., 1995; Basso, et al., 1996). This “BBB” scale has been adopted by the Multicenter Animal Spinal Cord Injury Study and by other workers in the field. […]

[3] = test system: spinal cord injury epicenter tissue; assay: Histological analysis of the spinal cord injury epicenter (hematoxylin and eosin, solvent blue); format: in vivo, Sprague-Dawley rats
Text: FIG. 9 presents micrographs showing the overall microscopic difference in injury epicenter pathology between rats receiving tPA or vehicle in the area of residual total tissue (hematoxylin and eosin stain).
FIG. 10 presents micrographs showing the overall difference between rats receiving tPA (left panel) or vehicle (right panel) in the typical cross-sectional area of residual total white matter (WM) at the injury epicenter (e.g. WM+hypomyelinated WM). […] In contrast, SB stain in the vehicle treated spinal cord was much weaker, indicating much lower quantity presence of myelin in the tissue.
Sections were stained with solvent blue [SB]/hematoxylin and eosin as described in Teng and Wrathall, 1997.
Three days post-operatively, a second operation was conducted at T8-T9 for a bolus micro-injection of 10 μg of tPA (human two-chain tissue plasminogen activator; American Diagnostica, Inc.) reconstituted from lyophilized powder to 10 μg/10 μL) into three of the six rats. Following the bolus injection, an osmotic minipump (Alzet Model 2002: 14 day pump) (Durect Corp., Cupertino, Calif.) loaded with tPA (200 μL total volume, delivering 0.5 μL/hour, 10 μg tPA/day) was implanted at the side of injury and delivered tPA for 10 consecutive days. […]

[4] = tPA activity in the solution remaining in implanted minipumps; format: physicochemical; conditions: rat body temperature; delivered from a minipump reservoir
Protocol: Three days post-operatively, a second operation was conducted at T8-T9 for a bolus micro-injection of 10 μg of tPA (human two-chain tissue plasminogen activator; American Diagnostica, Inc.) reconstituted from lyophilized powder to 10 μg/10 μL) into three of the six rats. Following the bolus injection, an osmotic minipump (Alzet Model 2002: 14 day pump) (Durect Corp., Cupertino, Calif.) loaded with tPA (200 μL total volume, delivering 0.5 μL/hour, 10 μg tPA/day) was implanted at the side of injury and delivered tPA for 10 consecutive days. At the 6th post-operative week, BDA and Fluorogold injections were made in cortex to assess the extent of corticospinal tract regrowth and reconnection, and at the 10th post-operative week, animals were perfused and their spinal cords were removed for histological analysis. Implanted minipumps were saved for analysis of tPA activity in the remaining solution.

[5] = test system: rats with middle cerebral artery occlusion (MCAO); assay: Forelimb inhibition behavioral test after middle cerebral artery occlusion (MCAO); format: in vivo; conditions: intraventricular infusion 2 or 10 μg/day for 7 days, started 2 days after MCAO
Protocol: Twenty rats were trained on a battery of behavioral tasks until they achieved an asymptotic level of competence. Rats then received occlusion of the middle cerebral artery (MCAO) according to standard procedures. […] At the time of MCAO surgery, 10 of the 20 rats were also implanted with an osmotic mini-pump (Alzet model 2001, 7 day pump with […] and 1.0 μL/hour infusion) for intraventricular infusion contralateral to the site of the MCAO. The mini-pumps were filled with human two-chain tissue plasminogen activator (tPA; American Diagnostica, Inc.) at two different concentrations: 5 animals received 2 μg/day and 5 animals received 10 μg/day. tPA treatment was initiated 2 days following MCAO and was maintained for 7 days. Control and tPA-treated rats were subsequently tested weekly for behavioral recovery.
Initial results regarding one of the behavioral tests, forelimb inhibition, are striking. Normal animals rarely use their forelimbs while swimming across a test basin, a phenomenon referred to as “inhibition”. After stroke, this inhibition is reduced, so that forelimb use increases. […] On other tests, there was less difference between tPA treated animals and controls though this and other data is still being analyzed.

[6] = test system: dendritic spines in visual cortex slices contralateral to the deprived eye; assay: Spine motility in visual cortex slices after monocular deprivation, followed by plasmin application (occlusion test); format: cell-based, mice
Protocol: Mice (C57/B16) expressing GFP (strain GFP-M) or YFP (strain YFP-H) in a subset of their cortical neurons (principally layer V pyramidal neurons) (Feng, G., et al., 2000) were anesthetized at postnatal days 26 or 40 and maintained in deep anesthesia using isoflurane. Monocular deprivation was performed by scoring the eyelids and then sealing them shut with tissue adhesive (Vetbond, 3M, St. Paul, Minn.). Mice were checked over the next 2-3 days to ensure that the eye remained closed. A total of 18 mice were used in the in vivo experiments (6 control, 4 deprived at p28; 4 control, 4 deprived at p42) and 24 mice were used in the slice experiments (15 control, 9 deprived).
Z-stack images were exported to MATLAB (Mathworks, Natick, Mass.) and processed using custom algorithms. Spine motility was analyzed on two-dimensional projections in ImageJ (NIH, Bethesda, Md.), where motility was defined as the average change in spine length per unit time (Lendvai et al., 2000; Majewska and Sur, 2003). Spine turnover was rarely observed in single imaging sessions. All values are presented as mean±standard error of the mean and all statistical analyses were performed using either a parametric t-test statistic for populations of monocularly deprived and control spines, or a parametric paired t-test statistic for enzymatic treatments.
Slice preparation and enzyme application. […]

Row | Molecule | effective dose for influencing axon growth (axon growth) | increase in spine motility [1] [%] | final score on the BBB test ([2]; after 10 weeks of recovery, first experiment, n=3/group, 10 μg bolus then 10 μg tPA/day for 10 days by minipump, baseline 21) | BBB scores relative to control animals ([2]; second experiment, n=7/group, tPA delivered for 7 days) | appearance of the contusion site, hematoxylin and eosin staining ([3]; in comparison to control) | integrity of residual white matter at the injury epicenter, solvent blue stain ([3]; versus vehicle) | time for which tPA maintains enzymatic activity [4] | forelimb use while swimming (forelimb inhibition) [5] | spine motility after additional plasmin application, superficial layers ([6]; regions where motility is already upregulated, n=88, p>0.5) | spine motility after plasmin treatment, middle regions ([6]; regions where motility is unchanged by deprivation, n=60, p<0.0001)
1 | O=c1onc2cnc3ccccc3n12 [ODQ] | about 10 uM | – | – | – | – | – | – | – | – | –
2 | tissue plasminogen activator [tPA] | – | 17 | ~9 | improved BBB scores | remarkably clean | significantly protected the integrity of the residual white matter | up to 10 days | much less than control animals | – | –
3 | B1 | – | 21 | – | – | – | – | – | – | unaffected | significantly increased
